How the values were obtained:
HepG2 cells = experiment: Cellular uptake and intracellular distribution, fluorescence microscopy; type: cell-based, human; details: SNCPs@st-p53pep 0.02 mg/mL or st-p53pep 2 μM, serum-free medium 4 h
Protocol: Human liver cancer cell line HepG2 were grown in DMEM containing 10% FBS and 1% penicillin/streptomycin at 37 °C in a humidified atmosphere of 5% CO2. HepG2 cells (1.2 × 10^5 cells/well) were seeded in a 4-well glass plate for 24 h. Then, SNCPs@st-p53pep (0.02 mg/mL) and st-p53pep alone (2 μM) were added to each well in a serum-free medium for 4 h. After incubation, the cells were carefully rinsed with PBS, and the medium was replaced with a serum-containing fresh medium. After the nucleus was stained with Hoechst 33342 staining kit by manufacturer’s protocol, bright field and fluorescence images were obtained by using a DeltaVision Elite Microscopy System (GE Healthcare, USA). To observe the distribution of SNCP8 and st-p53pep in cells, TAMRA-labeled SNCP8@FAM-labeled st-p53pep (0.25 mg/mL) was treated in the same manner instead of SNCP8@st-p53pep. And then, the Mander’s overlap coefficient (MOC) was calculated in the Image J program (ver. 1.52a) via the JACoP plugin to identify co-localization between fluorescence signals over time. […] The cell viability was determined using cell counting kit-8 (CCK-8) assay by monitoring absorbance at 450 and 670 nm wavelength measured using a microplate reader (Molecular Devices, Inc., USA). The EC50 values of SNCPs@st-p53pep were determined by the logistic curve-fitting method with Origin (OriginLab, USA).

p53 in HepG2 cells = experiment: Western blot, p53 protein level; type: cell-based, human
Protocol: (§1) Cells were lysed with Pro-PREP (IntronBio, Korea) according to the manufacturer’s protocol. The samples were centrifuged at 2000 × g and 4 °C for 15 min. The supernatant was collected to a 1.5 mL ep-tube and stored at −80 °C. After protein quantification using Pierce^TM BCA assay kit (Thermo Fisher Scientific, USA), the same amount of protein was diluted in water containing 5×loading buffer (Biosesang, Korea) and loaded on SDS-PAGE gel (Bio-rad, USA). After electrophoresis in Tris-Glycine SDS buffer at 80 V for 120 min, proteins in a gel were transferred to a nitrocellulose membrane (0.45 μm, Bio-rad, USA) in 1× Tris-Glycine Native Buffer (GenDEPOT, Korea) with 10% methanol at 90 V, and 4 °C for 90 min under stirring condition. The membrane was blocked with 5% milk to inhibit non-specific binding and immersed overnight at 4 °C in the presence of primary antibodies; GAPDH (1:2000, Abcam, USA), p53 (1:1000, Cell signaling, USA), MDM2 (1:1000, Cell signaling, USA), Bcl2 (1:1000, Cell signaling, USA) and CytC (1:1000, Cell signaling, USA). Anti-rabbit goat pAb, horseradish peroxidase (HRP)-linked antibody (1:5000, Abcam, USA) was used as a secondary antibody and the membrane was incubated for 1 h. After the reaction with the detection agent West Pico PLUS (Thermo Fisher Scientific, USA), bands of protein were monitored by a ImageQuant^TM LAS 4000 mini (GE Healthcare, USA). […]

CytC in HepG2 cells = experiment: Western blot, cytochrome c protein level; type: cell-based, human
Protocol: as §1

[1] = Whole-body FAM fluorescence decay in tumor after intratumoral injection; type: in vivo, Balb/c male nude mice; details: for rel. fluor. Int. (FAM): tumor ROI
Protocol: All of animal experiments were conducted in accordance with the Institutional Animal Care and Use Committees (IACUC) of Seoul National University. 5-week old Balb/c male nude mice were purchased (ORIENT BIO, Korea). Mice were housed in an environmentally controlled room (23 °C, with 55 ± 5% humidity and 12 h / 12 h light–dark cycle). To prepare tumor-bearing mice, a suspension of the HepG2 cells (6 × 10^6 cells) in 100 µL of sterilized PBS was subcutaneously injected (n = 3, biologically independent animals). Tumor-bearing mice were reared until the tumor volumes reach ~50 mm^3 and used for experiments. To investigate tumor growth inhibition efficiency, SNCP8@st-p53pep, SNCP8, and st-p53pep alone in 100 μL of PBS solution (50 mg SNCP8/kg, 5 μmole st-p53pep/kg) were directly injected into the tumor. The same volume of PBS solution was also directly treated into the tumor as a control. Intratumoral injection was performed at 3 day intervals. The changes in tumor volume and body weight were monitored over 14 days. Tumor volumes were calculated by using the equation of 1/2 × length × (width)^2, where the length and width are the longest and shortest diameters (mm) of the tumor, respectively. The relative tumor volume was derived from comparing it with the initial tumor volume. To observe sustainability and tumor exposure of st-p53pep in vivo, we used nude mice with HeLa and HepG2 cell xenografts prepared in the same manner as the tumor growth inhibition experiment. TAMRA-labeled SNCP8@ FAM-labeled st-p53pep was treated in the same manner as the tumor growth inhibition experiment instead of SNCP8@st-p53pep. Bright field and fluorescence images from mice were obtained overtime for 3 days by using fluorescence in vivo imaging system, FoBI (Neoscience, Korea). The relative intensity of FAM fluorescence attached to st-p53pep was calculated by using the region of interest (ROI) analysis. The half-life of FAM fluorescence decay was determined by exponential curve fitting method with Origin 2017 (OriginLab, USA).

[2] = Water solubility (in words); type: physicochemical
Bcl2 in HepG2 cells = experiment: Western blot, Bcl2 protein level; type: cell-based, human
Protocol: as §1

For `CC(C)C[C@@H]1NC(=O)[C@H](CC(C)C)NC(=O)[C@H](CCCNC(=N)N)NC(=O)[C@H](Cc2c[nH]c3ccccc23)NC(=O)[C@H](CC(C)C)NC(=O)[C@H](CC(N)=O)NC(=O)[C@H](NC(=O)[C@H](Cc2ccccc2)NC(=O)[C@@H](NC(=O)[C@H](CCC(N)=O)NC(=O)[C@H](CCC(N)=O)NC(=O)[C@H](CO)NC(=O)[C@H](CCC(N)=O)NC(=O)CNC(=O)CNC(=O)c2ccc3c(c2)C(=O)OC32c3ccc(O)cc3Oc3cc(O)ccc32)[C@@H](C)O)CCCCNC(=O)CCc2cn(nn2)CCC[C@@H](C(=O)N[C@@H](CCC(N)=O)C(=O)N[C@@H](CC(N)=O)C(N)=O)NC1=O` [st-p53pep], the “cellular uptake: green FAM fluorescence in cells (in words)” value (HepG2 cells) was “No fluorescence”, the “p53 level relative to Control” value (p53 in HepG2 cells; /GAPDH, Control = 1) was 1.126 and the “p53 rel. (/GAPDH)” value (p53 in HepG2 cells; intensity divided by GAPDH) was 0.7745. For the same molecule, the “CytC level relative to Control” value (CytC in HepG2 cells; /GAPDH, Control = 1) was 1.304, the “CytC rel. (/GAPDH)” value (CytC in HepG2 cells; intensity divided by GAPDH) was 0.81 and the “rel. fluor. Int. (FAM)” value ([1]; 0 hours after intratumoral injection) was 70000. For the same molecule, the “rel. fluor. Int. (FAM)” value ([1]; 6 hours after intratumoral injection) was 21050, the “rel. fluor. Int. (FAM)” value ([1]; 12 hours after intratumoral injection) was 7081 and the “rel. fluor. Int. (FAM)” value ([1]; 24 hours after intratumoral injection) was 501. For the same molecule, the “rel. fluor. Int. (FAM)” value ([1]; 48 hours after intratumoral injection) was 1, the “rel. fluor. Int. (FAM)” value ([1]; 72 hours after intratumoral injection) was 1 and the “time until green fluorescence signal in tumor disappeared” value ([1]; tumor-bearing mouse, intratumoral injection) was ≤ 24 h. The “half-life (t1/2) of green (FAM) fluorescence decay in tumor” value ([1]; tumor-xenograft mice, intratumoral injection, ROI analysis of whole-body image, exponential fit) was 3.5 h, the “solubility in water (in words)” value [2] was “poor water solubility” and the “Bcl2 level relative to Control” value (Bcl2 in HepG2 cells; /GAPDH, Control = 1) was 1.005. For the same molecule, the “Bcl2 rel. (/GAPDH)” value (Bcl2 in HepG2 cells; intensity divided by GAPDH) was 0.9585.

Reference: publication PMC9356039, “Multifunctional synthetic nano-chaperone for peptide folding and intracellular delivery” (Nature Communications, 2022)
